Values joined by “and” are separate entries in the source; they are usually repeats but may differ in a detail not shown here. Equal entries are not always repeated. Active and inactive are the calls of the source.
Tests used:
SUMO-activating enzyme [1] = biological target: T1, SUMO-activating enzyme (Homo sapiens, UniProt Q9UBT2); experiment: SUMOylation inhibitor hit validation, confirmation, SUMOylation inhibitor project, biochemical, AlphaScreen (AID 2018); type: functional
SUMO-activating enzyme [2] = biological target: T1, SUMO-activating enzyme; experiment: inhibitors of in vitro SUMOylation cascade, primary screen, biochemical, HTRF, uHTS (AID 2006); type: protein-complex assay
[3] = biological target: Glyceraldehyde-3-phosphate dehydrogenase (Homo sapiens, UniProt P04406)
[4] = biological target: Alkaline phosphatase, placental type (Homo sapiens, UniProt P05187); experiment: PLAP enzyme inhibitors, confirmation, biochemical, luminescence (AID 1512); type: functional
[5] = biological target: T2, Alkaline phosphatase, tissue-nonspecific isozyme (Homo sapiens, UniProt P05186); experiment: human TNAP enzyme inhibitors, SAR follow-up, biochemical, luminescent, dose response (AID 1056)
T2 sequence (P05186 whole entry): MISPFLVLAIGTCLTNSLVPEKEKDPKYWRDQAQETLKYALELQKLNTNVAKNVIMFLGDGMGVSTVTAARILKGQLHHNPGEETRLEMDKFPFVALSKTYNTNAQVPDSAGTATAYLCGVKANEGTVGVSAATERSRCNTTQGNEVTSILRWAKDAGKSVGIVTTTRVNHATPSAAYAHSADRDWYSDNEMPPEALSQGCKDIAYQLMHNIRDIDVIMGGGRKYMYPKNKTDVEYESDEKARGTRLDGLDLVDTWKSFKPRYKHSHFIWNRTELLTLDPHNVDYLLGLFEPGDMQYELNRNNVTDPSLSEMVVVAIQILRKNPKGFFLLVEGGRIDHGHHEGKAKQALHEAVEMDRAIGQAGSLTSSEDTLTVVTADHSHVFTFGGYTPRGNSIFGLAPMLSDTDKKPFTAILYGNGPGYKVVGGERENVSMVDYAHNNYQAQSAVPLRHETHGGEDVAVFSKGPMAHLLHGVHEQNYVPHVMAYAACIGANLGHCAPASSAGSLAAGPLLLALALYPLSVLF

[6] = biological target: T3, DNA dC->dU-editing enzyme APOBEC-3A (Homo sapiens, UniProt P31941); experiment: APOBEC3A DNA deaminase inhibitors, dose response, biochemical (AID 504722); type: functional
[7] = biological target: T4, DNA dC->dU-editing enzyme APOBEC-3G (Homo sapiens, UniProt Q9HC16); experiment: Dose Response confirmation of small molecule APOBEC3G DNA Deaminase Inhibitors via a fluorescence-based single-stranded DNA deaminase assay. [Related pubchem assays (depositor defined):AID493012, AID493028]; type: functional
[8] = biological target: T4, DNA dC->dU-editing enzyme APOBEC-3G; type: functional
[9] = biological target: T3, DNA dC->dU-editing enzyme APOBEC-3A; experiment: Dose Response confirmation of small molecule APOBEC3A DNA Deaminase Inhibitors via a fluorescence-based single-stranded DNA deaminase assay. [Related pubchem assays (depositor defined):AID493011, AID493024]; type: functional
Hexokinase = biological target: T5, Hexokinase (Trypanosoma brucei, UniProt Q38C41); experiment: Confirmation assay for inhibitors of Trypanosoma brucei hexokinase 1-Analogue-first series. [Related pubchem assays (depositor defined):AID1430, AID1632, AID2516, AID2560, AID2579, AID2600, AID449725, AID492951]; type: functional
T5 sequence (Q38C41 whole entry): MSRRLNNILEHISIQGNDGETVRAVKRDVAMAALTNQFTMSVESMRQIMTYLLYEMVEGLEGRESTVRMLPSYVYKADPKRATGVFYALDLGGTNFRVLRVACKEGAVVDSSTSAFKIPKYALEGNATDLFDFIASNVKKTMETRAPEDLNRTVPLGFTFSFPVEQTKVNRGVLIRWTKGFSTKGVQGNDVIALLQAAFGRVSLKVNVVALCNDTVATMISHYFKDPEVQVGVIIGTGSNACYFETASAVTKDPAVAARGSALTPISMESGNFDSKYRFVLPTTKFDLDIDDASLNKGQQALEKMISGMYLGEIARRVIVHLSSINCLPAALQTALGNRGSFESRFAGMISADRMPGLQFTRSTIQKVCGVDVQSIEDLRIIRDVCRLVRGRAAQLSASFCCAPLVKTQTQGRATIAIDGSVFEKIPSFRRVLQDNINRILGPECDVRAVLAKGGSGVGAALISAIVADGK

[10] = biological target: G-protein coupled receptor 55 (Homo sapiens, UniProt Q9Y2T6); experiment: GPR55 agonists via beta-arrestin recruitment, primary screen, imaging, U2OS cells, beta-arrestin-GFP redistribution (AID 1961); type: functional
[11] = biological target: T6, Carboxy-terminal domain RNA polymerase II polypeptide A small phosphatase 1 (Homo sapiens, UniProt Q9GZU7); experiment: inhibitors of CTDSP1, concentration-response testing, biochemical assay, absorbance-based, actives from ultra-high-throughput screening (AID 540297); type: functional
T6 sequence (Q9GZU7 whole entry): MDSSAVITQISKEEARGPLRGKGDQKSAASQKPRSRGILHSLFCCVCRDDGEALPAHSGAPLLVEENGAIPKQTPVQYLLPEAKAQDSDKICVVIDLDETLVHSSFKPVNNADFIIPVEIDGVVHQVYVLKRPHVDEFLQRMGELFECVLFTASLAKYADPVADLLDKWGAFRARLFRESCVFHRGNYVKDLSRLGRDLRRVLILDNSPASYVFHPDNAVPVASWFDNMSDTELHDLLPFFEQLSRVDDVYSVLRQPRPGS

Aminopeptidase N = biological target: T7, Aminopeptidase N (Plasmodium falciparum FcB1/Columbia, UniProt O96935); experiment: P. falciparum M1AAP inhibitors, biochemical, fluorogenic H-Leu-NHMec substrate, 1536-well (AID 1445); design: species or system Plasmodium falciparum 3D7, 3D7
T7 sequence (O96935 whole entry): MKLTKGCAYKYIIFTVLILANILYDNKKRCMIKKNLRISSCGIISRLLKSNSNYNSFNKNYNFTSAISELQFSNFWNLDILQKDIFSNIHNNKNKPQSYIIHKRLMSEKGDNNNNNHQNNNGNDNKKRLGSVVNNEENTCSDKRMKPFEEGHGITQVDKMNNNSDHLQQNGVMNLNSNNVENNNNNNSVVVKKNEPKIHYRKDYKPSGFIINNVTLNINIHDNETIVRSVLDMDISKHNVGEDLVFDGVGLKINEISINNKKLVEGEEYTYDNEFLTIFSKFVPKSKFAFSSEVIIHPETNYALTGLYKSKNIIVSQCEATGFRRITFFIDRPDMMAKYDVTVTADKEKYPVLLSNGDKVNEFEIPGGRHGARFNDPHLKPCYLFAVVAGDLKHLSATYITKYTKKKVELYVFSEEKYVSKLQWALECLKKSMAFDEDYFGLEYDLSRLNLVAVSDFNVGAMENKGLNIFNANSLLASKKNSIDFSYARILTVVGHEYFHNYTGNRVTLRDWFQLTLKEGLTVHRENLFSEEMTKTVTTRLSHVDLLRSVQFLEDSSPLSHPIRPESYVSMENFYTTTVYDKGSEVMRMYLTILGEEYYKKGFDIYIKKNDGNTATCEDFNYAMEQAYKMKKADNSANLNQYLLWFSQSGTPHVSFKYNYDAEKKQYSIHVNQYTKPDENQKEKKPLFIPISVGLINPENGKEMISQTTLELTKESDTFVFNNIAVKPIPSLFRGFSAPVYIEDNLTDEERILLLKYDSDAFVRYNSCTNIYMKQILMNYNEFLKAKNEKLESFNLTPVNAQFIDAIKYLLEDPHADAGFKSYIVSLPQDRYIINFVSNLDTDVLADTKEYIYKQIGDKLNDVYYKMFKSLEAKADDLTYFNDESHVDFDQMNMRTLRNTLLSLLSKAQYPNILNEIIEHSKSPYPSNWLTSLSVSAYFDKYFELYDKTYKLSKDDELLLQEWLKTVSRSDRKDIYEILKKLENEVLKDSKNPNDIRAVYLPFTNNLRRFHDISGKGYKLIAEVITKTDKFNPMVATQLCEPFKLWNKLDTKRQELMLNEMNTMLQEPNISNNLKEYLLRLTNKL

Genome polyprotein = Genome polyprotein (dengue virus type 2, UniProt P29990); experiment: Dengue-2 NS5 methyltransferase inhibitors, primary screen, biochemical, confirmation dose response (AID 588689); type: functional
[12] = biological target: Induced myeloid leukemia cell differentiation protein Mcl-1 (Homo sapiens, UniProt Q07820); type: functional
[13] = biological target: T8, Zinc finger protein mex-5 (Caenorhabditis elegans, UniProt Q9XUB2); experiment: MEX-5/TCR-2 RNA interaction inhibitors, dose response, biochemical, C. elegans, fluorescence polarization (AID 1960)
T8 sequence (Q9XUB2 whole entry): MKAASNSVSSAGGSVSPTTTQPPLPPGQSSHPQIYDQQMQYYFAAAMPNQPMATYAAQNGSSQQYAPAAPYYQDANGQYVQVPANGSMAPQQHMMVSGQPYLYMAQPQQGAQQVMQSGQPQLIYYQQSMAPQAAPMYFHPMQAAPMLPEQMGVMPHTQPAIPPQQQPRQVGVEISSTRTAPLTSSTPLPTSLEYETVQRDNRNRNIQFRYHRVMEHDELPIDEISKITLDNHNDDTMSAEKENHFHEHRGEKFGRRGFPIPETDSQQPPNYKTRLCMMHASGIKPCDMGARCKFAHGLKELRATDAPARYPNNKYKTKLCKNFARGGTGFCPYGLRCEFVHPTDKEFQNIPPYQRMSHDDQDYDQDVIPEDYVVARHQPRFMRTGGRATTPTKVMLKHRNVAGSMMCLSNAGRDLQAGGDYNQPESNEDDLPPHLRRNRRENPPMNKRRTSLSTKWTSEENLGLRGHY

Nonstructural protein 1 = Nonstructural protein 1 (Influenza A virus, UniProt Q194T2); type: functional, Influenza A virus (A/California/07/2009(H1N1))
Large T antigen = Large T antigen (Simian virus 40, UniProt P03070); type: functional, Betapolyomavirus macacae;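 note: Confirmatory-stage PubChem screen for compounds that inhibit SV40 T antigen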
Leucine aminopeptidase = biological target: T9, Leucine aminopeptidase (Plasmodium falciparum 3D7, UniProt Q8IL11); experiment: P. falciparum M17LAP inhibitors, primary screen, biochemical, fluorogenic H-Leu-NHMec substrate, 1536-well (AID 1619); type: functional
T9 sequence (Q8IL11 whole entry): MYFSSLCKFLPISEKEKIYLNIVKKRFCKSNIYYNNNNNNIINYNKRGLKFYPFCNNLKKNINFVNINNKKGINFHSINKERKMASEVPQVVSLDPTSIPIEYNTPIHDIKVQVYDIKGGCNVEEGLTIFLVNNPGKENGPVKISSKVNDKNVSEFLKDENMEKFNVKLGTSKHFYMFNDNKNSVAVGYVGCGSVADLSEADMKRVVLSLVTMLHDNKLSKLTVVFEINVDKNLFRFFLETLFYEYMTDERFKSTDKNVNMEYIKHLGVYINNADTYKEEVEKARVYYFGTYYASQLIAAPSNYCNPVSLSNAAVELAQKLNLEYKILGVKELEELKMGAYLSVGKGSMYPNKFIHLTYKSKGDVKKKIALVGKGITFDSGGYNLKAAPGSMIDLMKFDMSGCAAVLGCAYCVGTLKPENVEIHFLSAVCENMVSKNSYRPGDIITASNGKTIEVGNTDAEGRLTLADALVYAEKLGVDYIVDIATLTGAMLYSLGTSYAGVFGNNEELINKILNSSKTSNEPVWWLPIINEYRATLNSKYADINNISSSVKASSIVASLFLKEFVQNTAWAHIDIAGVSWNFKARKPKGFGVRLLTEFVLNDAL

[14] = biological target: T10, RNA-binding protein pos-1 (Caenorhabditis elegans, UniProt G5EF15); experiment: inhibitors of POS-1/mex-3 RNA binding, dose response, biochemical, fluorescence polarization (AID 1964);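 note: purified POS-1 fused to maltose binding protein made in E. coli; potency of compounds blocking POS-1 binding to fluorescent RNA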
T10 sequence (G5EF15 whole entry): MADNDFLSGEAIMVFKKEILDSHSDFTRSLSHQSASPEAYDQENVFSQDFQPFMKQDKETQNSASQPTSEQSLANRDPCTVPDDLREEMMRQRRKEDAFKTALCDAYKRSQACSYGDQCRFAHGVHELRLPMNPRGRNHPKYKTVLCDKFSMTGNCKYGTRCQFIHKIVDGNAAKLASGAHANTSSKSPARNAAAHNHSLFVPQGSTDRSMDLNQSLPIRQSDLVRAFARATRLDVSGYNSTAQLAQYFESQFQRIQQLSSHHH

COc1ccc(C)c2sc(NC(=O)c3cccc(N4C(=O)CCC4=O)c3)nc12
IC50 (SUMO-activating enzyme [1]): 9.99 µM (active) | IC50 (SUMO-activating enzyme [2]): 6.1 µM (active)

O=C1CC(c2ccccc2)Cc2[nH]ncc21 (stereo not drawn)
IC50 [3]: > 100 µM (not active) | IC50 [4]: > 100 µM (inactive) | IC50 [5]: > 100 µM (inactive)

COC(=O)c1cc(-c2ccc(Cl)cc2Cl)n[nH]1
IC50 [3]: > 100 µM (not active) | IC50 [4]: > 100 µM (inactive) | IC50 [5]: 264 nM (active) and 315 nM (active)

Sc1nc(-c2ccccc2)cn1/N=C/c1cccnc1
IC50 [6]: > 100 µM (inactive) | IC50 [7]: 4.77 µM (active)

CCc1nc(CNC(=O)c2cc(OC)c(OC)c(OC)c2)no1
IC50 [8]: 3.11 µM (active) | IC50 [9]: 2.24 µM (active)

COc1cccc(C(=O)NCc2nnc(S)n2-c2cccc(C)c2)c1
IC50 [6]: > 100 µM (inactive) | IC50 [7]: 12.8 µM (active)

COc1ccc(C(=O)Nc2ccccc2-c2nn[nH]n2)cc1
IC50 (Hexokinase): > 25 µM (inactive)

COc1ccc(C(=O)Nc2cc(Cl)ccc2C(=O)O)cc1OC
IC50 (Hexokinase): 15.5 µM (active)

Cc1ccc(-c2nc3ccccc3[nH]2)cc1NC(=S)NC(=O)c1ccccc1Br
EC50 [10]: 2.9 µM (active)

Cc1ccc(C)c(NC(=O)Cn2cc(C(=O)C3CC3)c3ccccc32)c1
IC50 [8]: 6.11 µM (active) | IC50 [9]: 6.88 µM (active)

Cc1cc(Br)ccc1NC(=O)CN(C)C(=O)Cn1c(=O)cnc2ccccc21
IC50 [8]: 6.85 µM (active) | IC50 [9]: 5.76 µM (active) | IC50 [11]: 7.57 µM (active)

COc1ccc(-c2cc(C(=O)Nc3cc(S(=O)(=O)N4CCOCC4)ccc3N3CCOCC3)c3ccccc3n2)cc1
EC50 [10]: 1.68 µM (active)

O=C(O)c1ccccc1NS(=O)(=O)c1ccc(NNC(=S)Nc2ccc(OC(F)F)cc2)c([N+](=O)[O-])c1
IC50 (Aminopeptidase N): 17.3 µM (active) | IC50 (Genome polyprotein): 18.5 µM (active) | IC50 [12]: 2.95 µM (active) | EC50 [13]: 5.57 µM (active) | IC50 (Nonstructural protein 1): 13 µM (active) | IC50 (Large T antigen): 29.8 µM (active) | IC50 (Leucine aminopeptidase): 5.33 µM (active) | EC50 [14]: 7.38 µM (active)

CC(C)(C)OC(=O)NC1(C(Cl)(Cl)Cl)Oc2ccccc2O1
IC50 [4]: > 100 µM (inactive) | IC50 [5]: > 100 µM (inactive)

Source: ChEMBL document CHEMBL1201862, “PubChem BioAssay data set” (2004)
